# According to patent publication US12594267B2, “Capsid inhibitors for the treatment of HIV” (Gilead Sciences, Inc., priority 2018, dated 2026):
# Read-outs that look alike come from different tables or passages of the source.
# Tests used:
# Format in all cases: cell-based, HIV-1
# [1] = system: NRTI-resistant viruses; conditions: Mutant/WT (LAI) EC50 ratio, MT-2 cells, mean ± s.d. of three experiments
# Description: (§1) The antiviral activity of the compound of Formula (a) was tested against a panel of known HIV-1 mutants resistant to HIV PIs (ATV and DRV), NRTIs (TFV and FTC), NNRTIs (RPV and EFV) or INSTIs (RAL, EVG and DTG) using a cytopathic antiviral assay in MT-2 cells.
# [2] = system: WT LAI; assay: microbe, parasite or virus in culture; conditions: Human immunodeficiency virus 1, MT2, read-out: WT LAI EC50
# Description: as §1
# [3] = system: PI-resistant viruses; assay: Cytopathic antiviral assay in MT-2 cells, PI-resistant viruses; conditions: Mutant/WT (HXB2D) EC50 ratio, mean ± s.d. of three experiments
# Description: as §1, with “cells. The compound of Formula (Ia) was fully active against all tested mutants resistant to PIs (Table 11), NRTIs (Table 12), NNRTIs (Table 13) or INSTIs (Table 14).” for “cells.”
# [4] = system: INSTI-resistant viruses; assay: Cytopathic antiviral assay in MT-2 cells, INSTI-resistant viruses; conditions: Mutant/WT (HXB2D) EC50 ratio, mean ± s.d. of three experiments
# Description: as §1, with “cells. The compound of Formula (Ia) was fully active against all tested mutants resistant to PIs (Table 11), NRTIs (Table 12), NNRTIs (Table 13) or INSTIs (Table 14).” for “cells.”
# [5] = system: NNRTI-resistant viruses; assay: Cytopathic antiviral assay in MT-2 cells, NNRTI-resistant viruses; conditions: Mutant/WT (HXB2D) EC50 ratio, mean ± s.d. of three experiments
# Description: as §1, with “cells. The compound of Formula (Ia) was fully active against all tested mutants resistant to PIs (Table 11), NRTIs (Table 12), NNRTIs (Table 13) or INSTIs (Table 14).” for “cells.”
# [6] = system: WT HXB2D; assay: Cytopathic antiviral assay in MT-2 cells, wild type HXB2D; conditions: Human immunodeficiency virus 1, MT2, read-out: WT HXB2D EC50, MT-2 cells, mean ± s.d. of three experiments in triplicate
# Description: as §1, with “cells. The compound of Formula (Ia) was fully active against all tested mutants resistant to PIs (Table 11), NRTIs (Table 12), NNRTIs (Table 13) or INSTIs (Table 14).” for “cells.”
# [7] = INSTI-resistance panel (Table 14)
Compound,EC50 Fold-Change ([1]; 6TAMs),EC50 Fold-Change ([1]; K65R),EC50 Fold-Change ([1]; M184V),EC50 [2] [nM],EC50 Fold-Change ([3]; G48V/V82A/L90M),EC50 Fold-Change ([3]; G48V/V82S),EC50 Fold-Change ([3]; I50V),EC50 Fold-Change ([3]; I84V/L90M),EC50 Fold-Change ([4]; E92Q/N155H),EC50 Fold-Change ([4]; E138K/Q148K),EC50 Fold-Change ([4]; G140S/Q148R),EC50 Fold-Change ([4]; N155H/Q148R),EC50 Fold-Change ([4]; R263K/M50I),EC50 Fold-Change ([4]; Y143R),"EC50 [6, 7] [nM]",EC50 ([6]; PI-resistance panel (Table 11)) [nM],further results
"Nc1nc(=O)n([C@@H]2CS[C@H](CO)O2)cc1F [FTC, emtricitabine]",4.1 ± 2.5,12.8 ± 2.4,>20.8,2.41 ± 1.16,,,,,,,,,,,,,
"COC(=O)N[C@H](C(=O)N[C@@H](Cc1ccccc1)[C@@H](O)CN(Cc1ccc(-c2ccccn2)cc1)NC(=O)[C@@H](NC(=O)OC)C(C)(C)C)C(C)(C)C [ATV, atazanavir]",0.5 ± 0.2,0.9 ± 0.3,0.6 ± 0.2,4.78 ± 1.26,32.5 ± 11.9,15.4 ± 3.1,3.5 ± 0.4,33.1 ± 7.8,1.0 ± 0.4,0.8 ± 0.3,1.1 ± 0.5,0.9 ± 0.4,1.1 ± 0.6,0.8 ± 0.2,3.7 ± 1.07,4.18 ± 0.46,EC50 Fold-Change ([5]; K103N): 0.6 ± 0.3; EC50 Fold-Change ([5]; K103N/Y181C): 0.6 ± 0.3; EC50 Fold-Change ([5]; L100I/K103N): 0.6 ± 0.3; EC50 Fold-Change ([5]; Y181C): 1.8 ± 1.0; EC50 Fold-Change ([5]; Y188L): 0.6 ± 0.3; EC50 ([6]; NNRTI-resistance panel (Table 13)): 4.6 ± 1.48 nM
"COc1cc2c(cc1Cc1cccc(Cl)c1F)c(=O)c(C(=O)O)cn2[C@H](CO)C(C)C [EVG, elvitegravir]",0.6 ± 0.4,0.8 ± 0.2,1.1 ± 0.7,2.64 ± 0.9,0.8 ± 0.4,0.7 ± 0.3,1.7 ± 1.0,1.0 ± 0.7,>53.5,>53.5,>53.5,51.0 ± 2.5,5.1 ± 3.7,2.1 ± 0.2,1.87 ± 0.19,2.02 ± 0.88,
